Source: ChEMBL document CHEMBL1201862, “PubChem BioAssay data set” (2004)
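Each compound was tested at five concentrations against cells in 96-well plates for 48 hours. Abbreviation: GI50, concentration required for 50% inhibition of growth.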 The source made the active and inactive calls. No stated cut-off is given here; in the data, active = GI50 up to about 1.1 µM and inactive = higher.

How the values were obtained:
Test in all cases: NCI-60 cell line screen, 48 h
[1] = system: A549
[2] = system: SK-MEL-2
[3] = system: MOLT-4
[4] = system: KM12
[5] = system: SW-620
[6] = system: RXF 631
[7] = system: SNB-19
[8] = system: SF-268
[9] = system: SN12C
[10] = system: IGROV-1
[11] = system: HL-60
[12] = system: EKVX
[13] = system: LXFL 529
[14] = system: HOP-92
[15] = system: SNB-75
[16] = system: M19-MEL
[17] = system: HOP-18
[18] = system: TK-10
[19] = system: HT-29
[20] = system: SF-295
[21] = system: K562
[22] = system: SK-OV-3
[23] = system: KM-20L2
[24] = system: UO-31
[25] = system: NCI-H460
[26] = system: DLD-1
[27] = system: RXF 393
[28] = system: RPMI-8226
[29] = system: SR
[30] = system: NCI-H226
[31] = system: M14
[32] = system: UACC-257
[33] = system: 786-0
[34] = system: SF-539
[35] = system: OVCAR-8
[36] = system: SK-MEL-28
[37] = system: SK-MEL-5
[38] = system: NCI-H522
[39] = system: UACC-62
[40] = system: OVCAR-4
[41] = system: HCT-116
[42] = system: OVCAR-3
[43] = system: COLO 205
[44] = system: CCRF-CEM
[45] = system: Malme-3M
[46] = system: NCI-H23
[47] = system: HCT-15
[48] = system: XF498
[49] = system: ACHN
[50] = system: CAKI-1
[51] = system: HOP-62
[52] = system: DMS-114
[53] = system: U-251
[54] = system: A498
[55] = system: SNB-78
[56] = system: HCC 2998
[57] = system: OVCAR-5
[58] = system: LOX IMVI
[59] = system: DMS-273

For `COC(=O)C1=CNC(C(=O)OC)=NN1`, the GI50 [1] was > 100 µM (inactive), the GI50 [2] was > 100 µM (inactive) and the GI50 [3] was > 100 µM (inactive). For the same compound, the GI50 [4] was > 100 µM (inactive), the GI50 [5] was > 100 µM (inactive) and the GI50 [6] was > 100 µM (inactive). For the same compound, the GI50 [7] was > 100 µM (inactive), the GI50 [8] was > 100 µM (inactive) and the GI50 [9] was > 100 µM (inactive). For the same compound, the GI50 [10] was > 100 µM (inactive), the GI50 [11] was > 100 µM (inactive) and the GI50 [12] was > 10 µM (inactive). For the same compound, the GI50 [13] was > 100 µM (inactive), the GI50 [14] was > 100 µM (inactive) and the GI50 [15] was > 100 µM (inactive). For the same compound, the GI50 [16] was > 100 µM (inactive), the GI50 [17] was > 100 µM (inactive) and the GI50 [18] was > 100 µM (inactive). For the same compound, the GI50 [19] was > 100 µM (inactive), the GI50 [20] was > 100 µM (inactive) and the GI50 [21] was > 100 µM (inactive). For the same compound, the GI50 [22] was > 100 µM (inactive), the GI50 [23] was > 100 µM (inactive) and the GI50 [24] was > 100 µM (inactive). For the same compound, the GI50 [25] was > 100 µM (inactive), the GI50 [26] was > 100 µM (inactive) and the GI50 [27] was > 100 µM (inactive). The GI50 [28] was > 100 µM (inactive), the GI50 [29] was > 100 µM (inactive) and the GI50 [30] was > 100 µM (inactive). For the same compound, the GI50 [31] was > 100 µM (inactive), the GI50 [32] was > 100 µM (inactive) and the GI50 [33] was > 100 µM (inactive). The GI50 [34] was > 100 µM (inactive), the GI50 [35] was > 100 µM (inactive) and the GI50 [36] was > 100 µM (inactive). For the same compound, the GI50 [37] was > 100 µM (inactive), the GI50 [38] was > 100 µM (inactive) and the GI50 [39] was > 100 µM (inactive). For the same compound, the GI50 [40] was > 100 µM (inactive), the GI50 [41] was > 100 µM (inactive) and the GI50 [42] was > 100 µM (inactive). For the same compound, the GI50 [43] was > 100 µM (inactive), the GI50 [44] was > 100 µM (inactive) and the GI50 [45] was > 100 µM (inactive). For the same compound, the GI50 [46] was > 100 µM (inactive), the GI50 [47] was greater than 100 µM and the GI50 [48] was > 100 µM (inactive). The GI50 [49] was > 100 µM (inactive), the GI50 [50] was > 100 µM (inactive) and the GI50 [51] was > 100 µM (inactive). The GI50 [52] was > 100 µM (inactive) and the GI50 [53] was > 100 µM (inactive).
For `Cc1ccc(C2=[N+]([O-])c3ccccc3C2=O)cc1`, the GI50 [1] was 46.7 µM (inactive), the GI50 [2] was > 46.8 µM (inactive) and the GI50 [3] was 24.7 µM (inactive). For the same compound, the GI50 [4] was 17 µM (inactive), the GI50 [5] was 36.4 µM (inactive) and the GI50 [6] was 22.2 µM (inactive). For the same compound, the GI50 [7] was 31.9 µM (inactive), the GI50 [8] was 35.1 µM (inactive) and the GI50 [9] was 19.7 µM (inactive). The GI50 [10] was 15.7 µM (inactive), the GI50 [11] was 7.98 µM (inactive) and the GI50 [12] was 24.7 µM (inactive). The GI50 [13] was 8.49 µM (inactive), the GI50 [14] was 9.23 µM (inactive) and the GI50 [15] was 44.4 µM (inactive). The GI50 [16] was > 36.1 µM (inactive), the GI50 [17] was 27.4 µM (inactive) and the GI50 [54] was > 100 µM (inactive). The GI50 [18] was > 31.6 µM (inactive), the GI50 [19] was 26.3 µM (inactive) and the GI50 [20] was 28.8 µM (inactive). The GI50 [21] was 16.1 µM (inactive), the GI50 [22] was > 100 µM (inactive) and the GI50 [23] was 40.4 µM (inactive). For the same compound, the GI50 [24] was > 56.1 µM (inactive), the GI50 [25] was 36.3 µM (inactive) and the GI50 [26] was 21.9 µM (inactive). The GI50 [27] was 17.7 µM (inactive), the GI50 [28] was 29.4 µM (inactive) and the GI50 [29] was 36.1 µM (inactive). The GI50 [30] was 46.7 µM (inactive), the GI50 [31] was 21.7 µM (inactive) and the GI50 [32] was 16.5 µM (inactive). The GI50 [55] was 31.7 µM (inactive), the GI50 [33] was 24 µM (inactive) and the GI50 [34] was 30.9 µM (inactive). For the same compound, the GI50 [35] was 17.3 µM (inactive), the GI50 [36] was 15.8 µM (inactive) and the GI50 [37] was 13.6 µM (inactive). The GI50 [38] was 15.8 µM (inactive), the GI50 [39] was 17.5 µM (inactive) and the GI50 [41] was 23.6 µM (inactive). The GI50 [42] was 16.6 µM (inactive), the GI50 [43] was 28.9 µM (inactive) and the GI50 [44] was 11.9 µM (inactive). For the same compound, the GI50 [45] was 22.9 µM (inactive), the GI50 [46] was 19.2 µM (inactive) and the GI50 [56] was > 51.3 µM (inactive). For the same compound, the GI50 [47] was 16.5 µM, the GI50 [48] was 12.9 µM (inactive) and the GI50 [57] was 52.6 µM (inactive). For the same compound, the GI50 [49] was 16 µM (inactive), the GI50 [58] was 16.8 µM (inactive) and the GI50 [50] was > 100 µM (inactive). The GI50 [51] was > 100 µM (inactive), the GI50 [52] was 14.5 µM (inactive) and the GI50 [53] was 19 µM (inactive).
For `O=C(c1nc2ccc(Cl)cc2nc1O)C(O)c1ccc2c(c1)OCO2` (stereo not drawn), the GI50 [1] was > 100 µM (inactive), the GI50 [2] was > 100 µM (inactive) and the GI50 [3] was 28.4 µM (inactive). For the same compound, the GI50 [4] was 63.7 µM (inactive), the GI50 [5] was > 100 µM (inactive) and the GI50 [6] was > 100 µM (inactive). For the same compound, the GI50 [8] was 91 µM (inactive), the GI50 [10] was > 100 µM (inactive) and the GI50 [11] was 19.7 µM (inactive). For the same compound, the GI50 [12] was > 100 µM (inactive), the GI50 [13] was 77.6 µM (inactive) and the GI50 [14] was > 100 µM (inactive). The GI50 [15] was > 100 µM (inactive), the GI50 [16] was > 100 µM (inactive) and the GI50 [17] was 12.8 µM (inactive). For the same compound, the GI50 [54] was > 100 µM (inactive), the GI50 [18] was > 100 µM (inactive) and the GI50 [19] was > 100 µM (inactive). For the same compound, the GI50 [20] was > 100 µM (inactive), the GI50 [21] was 53.8 µM (inactive) and the GI50 [22] was > 100 µM (inactive). The GI50 [23] was 74.5 µM (inactive), the GI50 [24] was > 100 µM (inactive) and the GI50 [25] was > 100 µM (inactive). For the same compound, the GI50 [26] was > 100 µM (inactive), the GI50 [27] was > 100 µM (inactive) and the GI50 [28] was 7.4 µM (inactive). The GI50 [59] was > 100 µM (inactive), the GI50 [30] was > 100 µM (inactive) and the GI50 [31] was > 100 µM (inactive). For the same compound, the GI50 [32] was > 100 µM (inactive), the GI50 [33] was > 100 µM (inactive) and the GI50 [35] was > 100 µM (inactive). The GI50 [36] was 78.5 µM (inactive), the GI50 [38] was 13.3 µM (inactive) and the GI50 [39] was 84.5 µM (inactive). For the same compound, the GI50 [40] was 71.4 µM (inactive), the GI50 [43] was > 100 µM (inactive) and the GI50 [44] was 4.17 µM (inactive). The GI50 [45] was > 100 µM (inactive), the GI50 [46] was > 100 µM (inactive) and the GI50 [56] was > 100 µM (inactive). The GI50 [48] was > 100 µM (inactive), the GI50 [57] was > 100 µM (inactive) and the GI50 [49] was 65.3 µM (inactive). The GI50 [58] was 98.9 µM (inactive), the GI50 [51] was > 100 µM (inactive) and the GI50 [52] was 8.43 µM (inactive). For the same compound, the GI50 [53] was > 100 µM (inactive).
For `CC(C)(C)C(=O)Nc1cccc2oc(-c3ccccc3)cc12`, the GI50 [1] was > 100 µM (inactive), the GI50 [2] was > 100 µM (inactive) and the GI50 [3] was 49.7 µM (inactive). For the same compound, the GI50 [4] was > 100 µM (inactive), the GI50 [5] was > 100 µM (inactive) and the GI50 [6] was 47 µM (inactive). The GI50 [7] was > 100 µM (inactive), the GI50 [9] was > 100 µM (inactive) and the GI50 [10] was > 100 µM (inactive). The GI50 [11] was 66.2 µM (inactive), the GI50 [12] was 65.3 µM (inactive) and the GI50 [13] was 36.3 µM (inactive). The GI50 [14] was 56.2 µM (inactive), the GI50 [15] was 85.1 µM (inactive) and the GI50 [16] was > 100 µM (inactive). The GI50 [17] was > 100 µM (inactive), the GI50 [54] was > 100 µM (inactive) and the GI50 [19] was > 100 µM (inactive). For the same compound, the GI50 [20] was > 100 µM (inactive), the GI50 [21] was > 100 µM (inactive) and the GI50 [22] was > 100 µM (inactive). The GI50 [23] was > 100 µM (inactive), the GI50 [24] was 26.2 µM (inactive) and the GI50 [25] was > 100 µM (inactive). The GI50 [26] was > 100 µM (inactive), the GI50 [27] was 17.3 µM (inactive) and the GI50 [28] was > 100 µM (inactive). For the same compound, the GI50 [29] was 88.5 µM (inactive), the GI50 [59] was > 100 µM (inactive) and the GI50 [31] was > 100 µM (inactive). For the same compound, the GI50 [32] was > 100 µM (inactive), the GI50 [55] was 14.1 µM (inactive) and the GI50 [33] was > 100 µM (inactive). For the same compound, the GI50 [34] was > 100 µM (inactive), the GI50 [35] was > 100 µM (inactive) and the GI50 [36] was > 100 µM (inactive). For the same compound, the GI50 [39] was > 100 µM (inactive), the GI50 [40] was > 100 µM (inactive) and the GI50 [42] was > 100 µM (inactive). The GI50 [43] was > 100 µM (inactive), the GI50 [44] was > 100 µM (inactive) and the GI50 [46] was > 100 µM (inactive). The GI50 [56] was > 100 µM (inactive), the GI50 [47] was greater than 100 µM and the GI50 [49] was > 100 µM (inactive). For the same compound, the GI50 [50] was > 100 µM (inactive), the GI50 [51] was > 100 µM (inactive) and the GI50 [52] was > 100 µM (inactive). The GI50 [53] was > 100 µM (inactive).
